Results as given in patent US11390868B2, “Treatment of filaggrin (FLG) related diseases by modulation of FLG expression and activity” (CuRNA, Inc., priority 2009, dated 2022).
Structures can show the parent of a compound that is named as a salt. Where two headings read alike, the source gives them in different places.

Legend:
[1] = cited from earlier work; for solubility in ethanol / alcohol: anhydrous ethanol or alcohol
[2] = system: FLG Natural Antisense Transcripts in primary keratinocytes; test: Real time PCR of FLG Natural Antisense Transcripts after treatment of primary keratinocytes with small compounds; assay type: cell-based; conditions: small compounds 1 uM, dosed twice, 24 h after second dosing, vs vehicle control (FIG. 5)
Protocol: Primary keratinocytes (from Promocell) were grown in a growth media (Keratinocyte Growth Media, Promocell cat #C-2011) at 37° C. with 5% CO2. One day before the experiment the cells were replated at approximately 5×10^4/ml (or about ⅓ dilution from 90% confluency) into 24-well collagen-coated plates (Beckton Dickinson BioCoat plates cat #35 6408) and incubated at 37° C. and 5% CO2 overnight. On the day of the experiment the media in the 24-well plates was changed to 1 ml fresh growth media. Small compounds were diluted in DMSO to the concentration of 1000 uM. On the day of the experiment this solution was diluted 1:100 in fresh growth media. Pure DMSO was diluted in media at the same ratio […] to treat vehicle control samples. To dose one well, […] of the compound or pure DMSO solution was added directly to well of a 24-well plate. The final concentration of compounds was 1 uM. Dosing volume was adjusted if a different concentration of compound was desired. After dosing the plates were incubated overnight at 37° C., 5% CO2. 24 h after addition of small compounds the media was replaced with fresh growth media and the dosing was repeated as described above. 24 h after second dosing RNA was extracted from the cells using SV Total RNA Isolation System from Promega (cat #Z3105) following the manufacturers' instructions. 600 ng of total RNA was added to the reverse transcription reaction performed using High Capacity cDNA kit from Applied Biosystems (cat #4368813) as described in the manufacturer's protocol. The cDNA from this reverse transcription reaction was used to monitor gene expression by real time PCR using BI Taqman Gene Expression Mix (cat #4369510) and primers/probes designed by AB (for example, assay ID #Hs00856927_gl for FLG). The following PCR cycle was used: 50° C. for 2 min, 95° C. for 10 min, 40 cycles of (95° C. for 15 seconds, 60° C. for […]) using StepOne thermal cycler (ABI). […] Fold change in gene expression after treatment with small compounds was calculated based on the difference in 18S-normalized dCt values between treated and mock-transfected samples.

[3] = cited from earlier work
TNF-alpha = conditions: several case studies and a pilot study; cited from earlier work
[4] = cited from earlier work; remark: listed apart in the source
[5] = system: patients with severe head trauma; conditions: peripheral vein injection plus standard procedures; cited from earlier work

For `CC1(C)O[C@@H]2[C@@H](CO[C@@]3(COS(N)(=O)=O)OC(C)(C)O[C@@H]23)O1` [Topiramate, 2,3:4,5-Di-O-isopropylidene-β-D-fructopyranose sulfamate], the solubility in acetone [1] is given as “freely soluble”, the “solubility in alkaline solutions” value ([1]; alkaline solutions containing sodium hydroxide or sodium phosphate, pH of 9 to 10) is given as “most soluble” and the solubility in chloroform [1] is given as “freely soluble”. The “solubility in dimethyl sulfoxide” value ([1]; dimethyl sulfoxide) was “freely soluble”, the “solubility in ethanol / alcohol” value [1] was “freely soluble” and the “levels of FLG Natural Antisense Transcripts” value (from here on “levels”) [2] was “significantly decreased”. For the same molecule, the “pH of saturated solution” value [3] was 6.3.

For `COC(=O)C1=C(C)NC(C)=C(C(=O)O[C@@H]2CCCN(Cc3ccccc3)C2)[C@@H]1c1cccc([N+](=O)[O-])c1.Cl` (relative stereo) [Bendipine, (4R)-rel-1,4-Dihydro-2,6-dimethyl-4-(3-nitrophenyl)-3,5-pyridinedicarboxylic acid 3-methyl 5-[(3R)-1-(phenylmethyl)-3-piperidinyl]ester hydrochloride], the “levels” value [2] was “significantly decreased”.

For `CC(NC(C)(C)C)C(=O)c1cccc(Cl)c1.Cl` (racemic) [Bupropion, (±)-1-(3-chlorophenyl)-2-[(1,1-dimethylethyl)amino]-1-propanone hydrochloride], the “solubility in water” value [1] is given as “highly soluble”, the “levels” value [2] is given as “significantly decreased” and the “level of inflammatory mediator TNF-alpha” value (TNF-alpha) is given as “lowers”.

In the case of `CN1C(C(=O)Nc2ccccn2)=C(O)c2ccccc2S1(=O)=O` [Piroxicam, 4-hydroxyl-2-methyl-N-2-pyridinyl-2H-1,2,-benzothiazine-3-carboxamide 1,1-dioxide], the “solubility in aqueous solutions” value ([1]; aqueous solutions) is listed as “slightly soluble”, the “solubility in dilute acid” value ([1]; dilute acid) is listed as “sparingly soluble” and the “solubility in ethanol / alcohol” value [1] is listed as “slightly soluble”. The “solubility in most organic solvents” value ([1]; most organic solvents) was “sparingly soluble”, the “solubility in water” value [1] was “sparingly soluble” and the “pKa of weak basic pyridyl nitrogen” value ([4]; pyridyl nitrogen) was 1.8.

In the case of `O=C([O-])CCc1nc(-c2ccccc2)c(-c2ccccc2)o1.[K+]` [Oxaprozin potassium, 4,5-diphenyl-2-oxazolepropionic acid, potassium salt], the “solubility in ethanol / alcohol” value [1] is given as “slightly soluble”, the “solubility in water” value [1] is given as “very soluble” and the PK in water ([4]; in water) is given as 9.7.

In the case of `COCCOC(=O)C1=C(C)NC(C)=C(C(=O)OC(C)C)C1c1cccc([N+](=O)[O-])c1` (stereo not drawn) [nimodipine, isopropyl 2-methoxyethyl 1,4-dihydro-2,6-dimethyl-4-(m-nitrophenyl)-3,5-pyridinedicarboxylate], the “Glasgow outcome score values” [5] is given as “higher”, the cerebral metabolism [5] is given as “improved” and the cerebral perfusion pressure [5] is given as “significantly higher”. For the same molecule, the intracranial pressure [5] was “lower”, the jugular glucose [5] was “lower” and the jugular lactate [5] was “lower”. The “jugular venous oxygen saturation” value [5] was “significantly higher”.

For `CCc1ccc(CCOc2ccc(CC3SC(=O)NC3=O)cc2)nc1` (racemic) [Pioglitazone hydrochloride, [(±)-5-[[4-[2-(5-ethyl-2-pyridinyl)ethoxy]phenyl]methyl]-2,4-]thiazolidinedione monohydrochloride], the “solubility in N,N-dimethylformamide” value ([1]; N,N-dimethylformamide) is listed as “soluble”, the solubility in acetone [1] is listed as “very slightly soluble” and the solubility in acetonitrile ([1]; acetonitrile) is listed as “very slightly soluble”. The “solubility in ethanol / alcohol” value [1] was “slightly soluble”, the solubility in ether ([1]; ether) was “insoluble” and the “solubility in water” value [1] was “practically insoluble”.

For `COC(=O)C1=C(C)NC(C)=C(C(=O)OC(C)C)C1c1cccc2nonc12` (stereo not drawn) [Isradipine, 3,5-Pyridinedicarboxylic acid, 4-(4-benzofurazanyl)-1,4-dihydro-2,6-dimethyl-, methyl 1-methylethyl ester], the solubility in acetone [1] is given as “freely soluble”, the solubility in chloroform [1] is given as “freely soluble” and the “solubility in ethanol / alcohol” value [1] is given as “soluble”. The “solubility in methylene chloride” value ([1]; methylene chloride) was “freely soluble”, the solubility in water ([1]; 37° C.) was < 10 mg/L and the “solubility in water” value [1] was “practically insoluble”.
